Experiments:
intracellular NAD+ = settings: human and animal data (background); cited from earlier work
UCP1 = UCP1 gene expression by qRT-PCR in hASC cells; type: cell-based, human; settings: 8 μM Naringenin, 30 μM Nicotinamide Riboside or the combination, 6 days
Experimental: (§1) Human adipose derived stem cells (hASC, LaCell, L.L.C., New Orleans, La.) from two different female overweight (BMI=26) donors were plated at a density of 10000 cells/cm^2 on 96-well plates and 24-well plates in preadipocyte medium (HyClone DMEM/F12 1:1, 10% fetal bovine serum (FBS), 1% Antibiotic/Antimycotic (Penicillin/Streptomycin/amphotericin)) at 37° C. in 5% CO2. […]
(§2) hASC cells were grown in a 96-well plate and treated as indicated. […] Gene expression was assessed by quantitative real-time polymerase chain reaction (qRT-PCR) using StepOnePlus™ PCR system (Thermo Fisher Scientific) and TaqMan Gene expression assays for UCP1 (Invitrogen, assay ID # Hs01084772_m1), Glut 4 (Invitrogen, assay ID # Hs00168966_m1), CPT1b (Invitrogen, assay ID # Hs0046298_s1), PRDM16 (Invitrogen, assay ID # Hs00223161_m1), AdipoQ (Invitrogen, assay ID # HS00605917_m1), ChREBP (Invitrogen, assay ID # HS00975714_m1), ATGL (Invitrogen, assay ID # Hs00982042), and RPL13A (Invitrogen, assay ID #Hs04194366_g1) as endogenous control.
(§3) Results were combined and calculated as fold changes of Control and represented as mean±SEM.

Glut4 = Glut4 gene expression by qRT-PCR in hASC cells; type: cell-based, human; settings: 8 μM Naringenin, 30 μM Nicotinamide Riboside or the combination, 6 days
Experimental: as §1, §2, §3

CPT1b = CPT1b gene expression by qRT-PCR in hASC cells; type: cell-based, human; settings: 8 μM Naringenin, 30 μM Nicotinamide Riboside or the combination, 6 days
Experimental: as §1, §2, §3

AdipoQ = AdipoQ gene expression by qRT-PCR in hASC cells; type: cell-based, human; settings: 8 μM Naringenin, 30 μM Nicotinamide Riboside or the combination, 6 days
Experimental: as §1, §2, §3

ChREBP = ChREBP gene expression by qRT-PCR in hASC cells; type: cell-based, human; settings: 8 μM Naringenin, 30 μM Nicotinamide Riboside or the combination, 6 days
Experimental: as §1, §2, §3

PRDM16 = PRDM16 gene expression by qRT-PCR in hASC cells; type: cell-based, human; settings: 8 μM Naringenin, 30 μM Nicotinamide Riboside or the combination, 6 days
Experimental: as §1, §2, §3

p-AMPK = test: Western blot of p-AMPK in hASC cells; type: cell-based, human; settings: 8 μM Naringenin, 30 μM Nicotinamide Riboside or the combination, 6 days
Experimental: (§4) Human adipose derived stem cells (hASC, LaCell, L.L.C., New Orleans, La.) from two different female overweight (BMI=26) donors were plated at a density of 10000 cells/cm^2 on 96-well plates and 24-well plates in preadipocyte medium (HyClone DMEM/F12 1:1, 10% fetal bovine serum (FBS), 1% Antibiotic/Antimycotic (Penicillin/Streptomycin/amphotericin)) at 37° C. in 5% CO2. One day after reaching confluence, preadipocytes were induced to differentiate with a differentiation medium consisting of 70% Gibco DMEM (high glucose 4.5 g/L), 30% HyClone DMEM/F12 1:1 (3 g/L glucose), 3% FBS, 1% Antibiotic/Antimycotic, 1 μM Dexamethasone, 33 μM Biotin, 100 nM Insulin, 20 μM Pantothenate, 5 μM Rosiglitazone, 500 μM IBMX. […]
(§5) The Phospho-AMPKα (Thr172)-, AMPK- and Sirt1—antibody was obtained from Cell Signaling (Danvers, Mass.). hASC cells were grown on 24-well plates and treated as indicated. Proteins were extracted by using standard protocols and measured by BCA kit (Thermo Scientific). […] Visualization and chemiluminescent detection was conducted using BioRad ChemiDoc instrumentation and software (Bio-Rad Laboratories, Hercules, Calif.) and band intensity was assessed using Image Lab 4.0 (Bio-Rad Laboratories, Hercules, Calif.), with correction for background. […]

Sirt1 = test: Western blot of Sirt1 in hASC cells; type: cell-based, human; settings: 8 μM Naringenin, 30 μM Nicotinamide Riboside or the combination, 6 days
Experimental: as §4, §5

ATGL = ATGL gene expression by qRT-PCR in hASC cells; type: cell-based, human; settings: 8 μM Naringenin, 30 μM Nicotinamide Riboside or the combination, 6 days
Experimental: as §1, §2
Results were combined and calculated as fold changes of Control and represented as mean±SEM. […]

hASC cells = test: Fatty acid oxidation (Seahorse) oxygen consumption; type: cell-based, human; settings: Seahorse XF 24; palmitate 200 μM; 8 μM Naringenin or combination with 30 μM NR
Experimental: as §4, with “IBMX. Preadipocytes were maintained in this differentiation medium for 4 to 5 days and subsequently cultured in maintenance medium (70% Gibco DMEM high glucose, 30% HyClone DMEM/F12 1:1, 3% FBS, 1% Antibiotic/Antimycotic, 1 μM Dexamethasone, 33 μM Biotin, 100 nM Insulin, 20 μM Pantothenate) (=day 0 for experiments).” for “IBMX.”
The palmitate-stimulated oxygen consumption rate was measured with the XF 24 analyzer (Seahorse Bioscience, Billerica, Mass., USA) Cells were seeded and differentiated as described above. […] Data for each sample were normalized to the pre-palmitate injection baseline for that sample and expressed as % change from that baseline. […] All data are expressed as mean±SEM. […]

Compound | increase in NAD+ resulting from administration (intracellular NAD+) [%] | UCP1 expression, fold changes of Control (UCP1) | Glut4 expression, fold changes of Control (Glut4) | CPT1b expression, fold changes of Control (CPT1b) [fold] | AdipoQ expression, fold changes of Control (AdipoQ) | ChREBP expression, fold changes of Control (ChREBP) | PRDM16 expression, fold changes of Control (PRDM16) | p-AMPK protein expression (p-AMPK) | Sirt1 protein expression (Sirt1) | ATGL expression, fold changes of Control (ATGL) | increase in both basal and palmitate-induced oxygen consumption (fatty acid oxidation) (hASC cells)
NC(=O)c1ccc[n+]([C@@H]2O[C@H](COP(=O)([O-])O)[C@@H](O)[C@H]2O)c1 [NMN, Nicotinamide mononucleotide] | ~40 | – | – | – | – | – | – | – | – | – | –
NC(=O)c1ccc[n+]([C@@H]2O[C@H](CO)[C@@H](O)[C@H]2O)c1 [NR, Nicotinamide Riboside] | ~40 | no independent effect | no independent effect | ~2.4 | no significant effect | two-fold | significantly upregulated | no significant effect | no significant effect | – | –
O=C1C[C@@H](c2ccc(O)cc2)Oc2cc(O)cc(O)c21 [naringenin, Naringenin] | – | ~12 fold | two-fold | ~2.4 | modestly but significantly increased | two-fold | significantly upregulated | significantly increased | significantly increased | two-fold | 30-40%

Reference: patent publication US20220409647A1, “COMPOSITIONS, METHODS AND KITS FOR ALTERING ADIPOCYTES” (NuSirt Sciences, Inc., priority 2019, published 2022)
